Experiments:
[1] = test system: AQP3, PPAR-α, PPAR-β, K5, and K14 gene level in human keratinocyte cell line (HaCaT cells); assay: Skin regeneration effect after ultraviolet (UV) irradiation: gene level changes in UVA-irradiated HaCaT cells; format: cell-based; details: for skin regeneration effect: HaCaT cells
Excerpt: A human keratinocyte cell line (HaCaT cells) was irradiated with ultraviolet (UVA) (2 J/cm^2, 3 J/cm^2) and then, treated with a compound represented by Chemical Formula 1-1 (camellenodiol), which was obtained by extracting 10 kg of dry camellia powder with water-soluble ethanol and subsequently, performing filtration, concentration under a reduced pressure, and purification by using HP-20 and silica chromatography, to exam AQP3, PPAR-α, PPAR-β, K5, and K14 gene level changes, and the results are shown in FIGS. 1 to 4.

[2] = Cytotoxicity evaluation using a serum-free media; format: cell-based
Procedure: A cytotoxicity evaluation of the compound represented by Chemical Formula 1-1 was twice performed by using a serum-free media, and the results are shown in FIGS. 5 and 6. Referring to FIGS. 5 and 6, a significant cytotoxicity concentration of the compound represented by Chemical Formula 1-1 was 20 μM (cell viability<80%).

## CC1(C)CC[C@]2(O)C(=O)C[C@]3(C)C(=CC[C@@H]4[C@@]5(C)CC[C@H](O)C(C)(C)[C@@H]5CC[C@]43C)[C@@H]2C1 [Chemical Formula 1-1, camellenodiol]
[1]; HaCaT cells after UVA irradiation (2 J/cm^2, 3 J/cm^2), compound at 5 μM to 10 μM, specifically 7.5 μM, FIGS. 1 to 4
  levels of the genes (AQP3, PPAR-α, PPAR-β, K5, K14): significantly increased
[1]; UVA 2 J/cm^2, compound at 7.5 μM to 10 μM
  skin regeneration effect: excellent skin regeneration effect
[1]; UVA 3 J/cm^2, compound at 5 μM to 7.5 μM
  skin regeneration effect: excellent skin regeneration effect
[2]; at 20 μM
  cell viability: < 80%
[2]; performed twice, criterion cell viability<80%, FIGS. 5 and 6
  significant cytotoxicity concentration: 20 µM

Source: patent publication US11564875B2, “Cosmetic composition for skin regeneration” (Amorepacific Corporation, priority 2018, dated 2023)
